pIC50: −log10 of the molar value. Where “and” joins values, the source holds several entries; their conditions need not be identical. Equal entries are not always repeated. Where two headings read alike, the source gives them in different places.

In test [1] the target is T1, AHR (Mus musculus, UniProt P30561).
T1 sequence (P30561 1-848 P471L/N533S/M589L): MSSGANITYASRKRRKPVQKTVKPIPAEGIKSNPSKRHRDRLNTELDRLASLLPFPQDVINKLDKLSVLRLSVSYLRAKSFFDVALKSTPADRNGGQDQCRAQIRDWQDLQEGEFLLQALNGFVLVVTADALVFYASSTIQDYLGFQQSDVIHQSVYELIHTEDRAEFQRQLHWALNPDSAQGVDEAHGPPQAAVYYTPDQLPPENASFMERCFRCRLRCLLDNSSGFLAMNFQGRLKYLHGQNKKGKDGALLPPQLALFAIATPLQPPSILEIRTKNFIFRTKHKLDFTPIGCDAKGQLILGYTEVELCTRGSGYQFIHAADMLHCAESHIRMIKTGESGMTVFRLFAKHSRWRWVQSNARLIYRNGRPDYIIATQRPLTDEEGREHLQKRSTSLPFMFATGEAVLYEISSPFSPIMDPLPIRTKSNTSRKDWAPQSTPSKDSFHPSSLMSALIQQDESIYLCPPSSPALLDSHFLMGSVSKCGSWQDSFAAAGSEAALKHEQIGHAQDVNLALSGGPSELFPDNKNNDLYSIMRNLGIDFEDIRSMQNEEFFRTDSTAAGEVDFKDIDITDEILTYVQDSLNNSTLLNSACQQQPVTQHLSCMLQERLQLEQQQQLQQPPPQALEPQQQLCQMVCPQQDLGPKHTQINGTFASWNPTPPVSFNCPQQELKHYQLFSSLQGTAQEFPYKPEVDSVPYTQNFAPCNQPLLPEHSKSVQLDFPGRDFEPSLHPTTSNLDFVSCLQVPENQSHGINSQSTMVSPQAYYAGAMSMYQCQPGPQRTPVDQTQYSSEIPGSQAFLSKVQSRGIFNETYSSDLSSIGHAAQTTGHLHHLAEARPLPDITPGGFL
Put plainly: In vitro assay 3: antagonism in mouse cell line (AHR transactivation, firefly luciferase reporter, kynurenic acid prestimulated). Type of test: cell-based. The note with it: 200 μM kynurenic acid, 20 hours, read-out: AHR Antagonism Mouse IC50. In outline: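 Kynurenic acid-prestimulated mouse reporter cells; stable AHR-inducible firefly luc construct with DRE sites in promoter. No-agonist wells = positive inhibition ctrl. Luminescence normalized to pos/neg ctrls; n>1 reported as mean or median.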
Background: A reporter such as luciferase makes a cellular process visible.

The target of test [2] is T2, AHR (Homo sapiens, UniProt P35869).
T2 construct: U87 MG glioblastoma cells (ATCC #HTB-14) endogenously expressing AHR; endogenous in cells; host or cells: U87 MG glioblastoma cells (ATCC #HTB-14)
T2 sequence (P35869 11-848): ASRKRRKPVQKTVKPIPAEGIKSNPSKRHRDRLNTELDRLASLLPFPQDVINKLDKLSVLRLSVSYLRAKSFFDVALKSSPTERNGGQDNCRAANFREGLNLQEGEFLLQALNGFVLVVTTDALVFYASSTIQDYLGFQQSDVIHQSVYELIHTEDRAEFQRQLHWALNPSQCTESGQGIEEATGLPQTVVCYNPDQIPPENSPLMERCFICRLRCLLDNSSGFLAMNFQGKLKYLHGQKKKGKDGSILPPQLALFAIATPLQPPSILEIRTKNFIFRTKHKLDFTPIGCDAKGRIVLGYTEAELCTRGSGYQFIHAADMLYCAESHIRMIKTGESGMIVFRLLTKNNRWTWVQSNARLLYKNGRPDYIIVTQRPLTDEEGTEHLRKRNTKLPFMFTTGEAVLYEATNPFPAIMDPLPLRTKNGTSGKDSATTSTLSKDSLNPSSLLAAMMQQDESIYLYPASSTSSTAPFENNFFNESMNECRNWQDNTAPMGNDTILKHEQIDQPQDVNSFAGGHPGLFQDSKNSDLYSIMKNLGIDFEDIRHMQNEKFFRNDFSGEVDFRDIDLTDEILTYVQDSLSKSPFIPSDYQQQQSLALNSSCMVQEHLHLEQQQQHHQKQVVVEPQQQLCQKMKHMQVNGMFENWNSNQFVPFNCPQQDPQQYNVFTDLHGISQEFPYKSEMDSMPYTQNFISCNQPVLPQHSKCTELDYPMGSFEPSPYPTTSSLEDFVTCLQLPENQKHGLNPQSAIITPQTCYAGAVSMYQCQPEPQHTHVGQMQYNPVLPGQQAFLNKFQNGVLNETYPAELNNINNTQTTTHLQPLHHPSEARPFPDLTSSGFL
Put plainly: In vitro assay 1: antagonism in human cell line (AHR transactivation, firefly luciferase reporter, kynurenic acid prestimulated). It is filed as cell-based. The note with it: AHR Antagonism Human IC50 [M]. The method in brief:
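Antagonism is measured against kynurenic acid prestimulation in U87 MG glioblastoma cells carrying stable DRE-luciferase and Renilla reporters. Positive inhibition control: 150 μM kynurenic acid with 5 μM staurosporine. Values are normalized to controls; repeats are averaged or given as medians.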

The term pIC50 denotes the negative decadic logarithm of the IC50, by convention in mol/L. As usually defined, the IC50 is the concentration at which inhibition is half-maximal. Lower therefore signals higher potency. Regarding `CCC[C@@H](Nc1nc2ccccc2c2nc(-c3cc(F)ccc3OC(F)(F)F)nn12)C(=O)NC` [Example 494, N^2-{2-[5-fluoro-2-(trifluoromethoxy)phenyl][1,2,4]triazolo[1,5-c]quinazolin-5-yl}-N-methyl-D-norvalinamide], on AHR [1] (mouse Hepa 1c1c7 cells), the pIC50 is 7.95. At AHR [2], this molecule showed a concentration for half-maximal inhibition (IC50) of 2.28e-07 M.

In the case of `Cn1cc(-c2nc3c4cccc(Cl)c4nc(N[C@@H]4CCCCNC4=O)n3n2)cn1` [Example 194, (3R)-3-{[7-Chloro-2-(1-methyl-1H-pyrazol-4-yl)[1,2,4]triazolo[1,5-c]quinazolin-5-yl]amino}azepan-2-one], on AHR [1] (mouse Hepa 1c1c7 cells), the pIC50 is 8.42. For the same molecule, 1.17e-09 M corresponded to half-maximal inhibition on AHR [2] (IC50).

Take `N#Cc1ccc(-c2nc3c4ccccc4nc(N[C@H]4CCCCNC4=O)n3n2)cc1` [Example 437, 4-(5-{[(3S)-2-oxoazepan-3-yl]amino}[1,2,4]triazolo[1,5-c]quinazolin-2-yl)benzonitrile]: on AHR [1] (mouse Hepa 1c1c7 cells), the negative logarithm of the IC50 (pIC50) was 8.10. On AHR [2], this molecule had an IC50 of 3.65e-08 M.

Take `COc1ccc(-c2nc3c4c(C(F)(F)F)cccc4nc(N[C@@H]4CCCCNC4=O)n3n2)cc1` [Example 172, (3R)-3-{[2-(4-methoxyphenyl)-10-(trifluoromethyl)[1,2,4]triazolo[1,5-c]quinazolin-5-yl]amino}azepan-2-one]: the negative-log IC50 (pIC50) at AHR [1] (mouse Hepa 1c1c7 cells) was 7.92. The molecule also had a 50% inhibitory concentration (IC50) against AHR [2] of 1.29e-08 M.

With `Cc1sccc1-c1nc2c3ccccc3nc(N[C@@H]3CCNC3=O)n2n1` [Example 349, (3R)-3-{[2-(2-methylthiophen-3-yl)[1,2,4]triazolo[1,5-c]quinazolin-5-yl]amino}pyrrolidin-2-one], the negative-log IC50 (pIC50) on AHR [1] (mouse Hepa 1c1c7 cells) is 7.94. Besides, on AHR [2], the IC50 came to 5.16e-08 M.

For the molecule `COc1cccc(-c2nc3c4cccc(C)c4nc(N[C@@H]4CCCCNC4=O)n3n2)c1` [Example 140, (3R)-3-{[2-(3-methoxyphenyl)-7-methyl[1,2,4]triazolo[1,5-c]quinazolin-5-yl]amino}azepan-2-one], the negative-log IC50 (pIC50) at AHR [1] (mouse Hepa 1c1c7 cells) is 8.97. Also, half-maximal inhibition at AHR [2] (IC50) was put at 1.09e-09 M.

For `CCCNC(=O)[C@@H](C)Nc1nc2ccccc2c2nc(-c3ccccc3OC(F)(F)F)nn12` [Example 465, N-propyl-N^2-{2-[2-(trifluoromethoxy)phenyl][1,2,4]triazolo[1,5-c]quinazolin-5-yl}-D-alaninamide], the negative logarithm of the IC50 (pIC50) at AHR [1] (mouse Hepa 1c1c7 cells) was 8.41. Moreover, at AHR [2], the IC50 was determined as 1.34e-08 M.

Turning to `CN1CCNC(=O)[C@H](Nc2nc3c(Br)cccc3c3nc(-c4cnn(C)c4)nn23)C1` [Example 994, (6R)-6-{[7-bromo-2-(1-methyl-1H-pyrazol-4-yl)[1,2,4]triazolo[1,5-c]quinazolin-5-yl]amino}-1-methyl-1,4-diazepan-5-one], the pIC50 on AHR [1] (Hepa 1c1c7 cells, firefly luciferase reporter) is 7.59. The same molecule registered a 50% inhibitory concentration (IC50) against AHR [2] (firefly luciferase reporter) of 2.32e-08 M.

As to `COc1ccc(-c2nc3c4c(C5CNC5)cccc4nc(N[C@@H]4CCCCNC4=O)n3n2)cc1` [Example 647, (3R)-3-{[10-(azetidin-3-yl)-2-(4-methoxyphenyl)[1,2,4]triazolo[1,5-c]quinazolin-5-yl]amino}azepan-2-one], the pIC50 on AHR [1] (mouse Hepa 1c1c7 cells) was < 4.70 and 4.89. At AHR [2], half-maximal inhibition (IC50) was put at 6.34e-06 M.

For `O=C1NCCCC[C@@H]1Nc1nc2ccccc2c2nc(-c3cccc(OC(F)(F)F)c3)nn12` [Example 315, (3S)-3-({2-[3-(trifluoromethoxy)phenyl][1,2,4]triazolo[1,5-c]quinazolin-5-yl}amino)azepan-2-one], the negative logarithm of the IC50 (pIC50) on AHR [1] (mouse Hepa 1c1c7 cells) was 7.29. In addition, the IC50 on AHR [2] is 2.06e-07 M.

For the molecule `O=C1NCCCC1Nc1nc2ccccc2c2nc(-c3cccc(F)c3)nn12` (stereo not drawn) [Example 8, 3-{[2-(3-fluorophenyl)[1,2,4]triazolo[1,5-c]quinazolin-5-yl]amino}piperidin-2-one], at AHR [1] (mouse Hepa 1c1c7 cells), the pIC50 was 6.98. On AHR [2], this molecule registered a 50% inhibitory concentration (IC50) of 5.44e-08 M.

In the case of `O=C1NCCNC[C@H]1Nc1nc2c(C(F)(F)F)cccc2c2nc(-c3ccc(F)cc3)nn12` [Example 423, (6R)-6-{[2-(4-fluorophenyl)-7-(trifluoromethyl)[1,2,4]triazolo[1,5-c]quinazolin-5-yl]amino}-1,4-diazepan-5-one], the negative logarithm of the IC50 (pIC50) on AHR [1] (mouse Hepa 1c1c7 cells) is 9.46. The molecule further displayed a 50% inhibitory concentration (IC50) against AHR [2] of 2.81e-10 M.

Consider `O=C1NCCCC[C@H]1Nc1nc2ccccc2c2nc(-c3cccc(C(F)(F)F)c3)nn12` [Example 54, (3R)-3-({2-[3-(trifluoromethyl)phenyl][1,2,4]triazolo[1,5-c]quinazolin-5-yl}amino)azepan-2-one], for which, on AHR [1] (mouse Hepa 1c1c7 cells), the pIC50 was 8.49. At AHR [2], this molecule showed a half-maximal inhibitory concentration (IC50) of 2.08e-08 M.

Regarding `COc1ccc(-c2nc3c4cccc(Br)c4nc(N[C@@H](C(N)=O)C(C)C)n3n2)cc1` [Example 556, N^2-[7-bromo-2-(4-methoxyphenyl)[1,2,4]triazolo[1,5-c]quinazolin-5-yl]-D-valinamide], the pIC50 at AHR [1] (mouse Hepa 1c1c7 cells) was 9.38. This molecule also came in with an IC50 against AHR [2] of 4.03e-10 M.

Take `O=C1NCCNC[C@H]1Nc1nc2ccccc2c2nc(-c3cn[nH]c3)nn12` [Example 264, (6R)-6-{[2-(1H-pyrazol-4-yl)[1,2,4]triazolo[1,5-c]quinazolin-5-yl]amino}-1,4-diazepan-5-one]: the pIC50 on AHR [1] (mouse Hepa 1c1c7 cells) was below 4.70. For the same molecule, at AHR [2], the IC50 is above 2e-05 M.

Regarding `COc1ccc(-c2nc3c4ccc(Br)cc4nc(N[C@@H]4CCCCNC4=O)n3n2)cc1` [Example 229, (3R)-3-{[8-bromo-2-(4-methoxyphenyl)[1,2,4]triazolo[1,5-c]quinazolin-5-yl]amino}azepan-2-one], the pIC50 on AHR [1] (mouse Hepa 1c1c7 cells) is 7.00. The molecule also displayed an IC50 against AHR [2] of 5.82e-08 M.

For the molecule `COc1ccc(-c2nc3c4cccc(C(F)(F)F)c4nc(N[C@@H]4CNCCNC4=O)n3n2)cc1` [Example 422, (6R)-6-{[2-(4-methoxyphenyl)-7-(trifluoromethyl)[1,2,4]triazolo[1,5-c]quinazolin-5-yl]amino}-1,4-diazepan-5-one], the pIC50 at AHR [1] (mouse Hepa 1c1c7 cells) is 9.03. Besides, at AHR [2], the half-maximal inhibitory concentration (IC50) came out at 3.61e-10 M.

With `O=C1NCCNC[C@H]1Nc1nc2c(C(F)(F)F)cccc2c2nc(-c3cccc(F)c3)nn12` [Example 424, (6R)-6-{[2-(3-fluorophenyl)-7-(trifluoromethyl)[1,2,4]triazolo[1,5-c]quinazolin-5-yl]amino}-1,4-diazepan-5-one], at AHR [1] (mouse Hepa 1c1c7 cells), the pIC50 is 8.77. Besides, the IC50 at AHR [2] came to 5.89e-10 M.

On to `CN(C)c1cccc(-c2nc3c4ccccc4nc(N[C@@H]4CNCCNC4=O)n3n2)c1` [Example 408, (6R)-6-({2-[3-(dimethylamino)phenyl][1,2,4]triazolo[1,5-c]quinazolin-5-yl}amino)-1,4-diazepan-5-one], for which the negative logarithm of the IC50 (pIC50) at AHR [1] (mouse Hepa 1c1c7 cells) is 7.87. Moreover, the IC50 against AHR [2] came to 1.85e-07 M.

For the molecule `COc1ccc(-c2nc3c4cccc(C(C)C)c4nc(N[C@@H]4CNCCNC4=O)n3n2)cc1` [Example 429, (6R)-6-{[2-(4-methoxyphenyl)-7-(propan-2-yl)[1,2,4]triazolo[1,5-c]quinazolin-5-yl]amino}-1,4-diazepan-5-one], the pIC50 at AHR [1] (mouse Hepa 1c1c7 cells) is 7.15. Also, the IC50 against AHR [2] is 7.8e-09 M.

On to `O=C1NCCNCC1Nc1nc2cccc(Cl)c2c2nc(-c3cccc(F)c3)nn12` (stereo not drawn) [Example 284, 6-{[10-chloro-2-(3-fluorophenyl)[1,2,4]triazolo[1,5-c]quinazolin-5-yl]amino}-1,4-diazepan-5-one], for which the pIC50 on AHR [1] (mouse Hepa 1c1c7 cells) was 6.56. For the same molecule, the IC50 at AHR [2] is above 2e-05 M.

Values taken from patent US20230113037A1 (Bayer Aktiengesellschaft, priority 2019, published 2023).
